From US20240067639A1, “SMALL MOLECULES THAT TARGET THE RNA THAT CAUSES ALS” (EXPANSION THERAPEUTICS, INC., priority 2020, published 2024) come the findings set out here.

pIC50, pKi: −log10 of the molar value.

One test relates to RAN translation of (G4C2)66-No ATG-GFP in HEK293T cells. As to the kind of experiment: Cell-based assay of RAN translation inhibition (GFP/mCherry reporter). The conditions noted are these: Homo sapiens, HEK-293T, 24 h, Table D; HEK293T, 24 h treatment; read-out: RANT IC25.
By IC25 is commonly meant the concentration at which the effect reaches the 25% level. On to `Cc1c2ccncc2cc2c3cc(OCCN4CCCC4)ccc3n(C)c12` [Compound 7, 5,6-dimethyl-9-(2-(pyrrolidin-1-yl)ethoxy)-6H-pyrido[4,3-b]carbazole], for which the IC25 was above 5 µM. The same measure, in the same setting: the figure for `Cc1c2ccncc2cc2c3cc(C(=O)N4CCNCC4)ccc3n(C)c12` [Example 72, (5,6-dimethyl-6H-pyrido[4,3-b]carbazol-9-yl)(piperazin-1-yl)methanone] is above 5 µM; for `Cc1c2ccncc2cc2c3cc(C(=O)NCCN)ccc3n(C)c12` [Example 74, N-(2-aminoethyl)-5,6-dimethyl-6H-pyrido[4,3-b]carbazole-9-carboxamide] it is above 5 µM; for `COCCNC(=O)c1ccc2c(c1)c1cc3cnccc3c(C)c1n2C` [Example 79, N-(2-methoxyethyl)-5,6-dimethyl-6H-pyrido[4,3-b]carbazole-9-carboxamide] it is 1.1 µM.

Staying with this test, now noted: Homo sapiens, HEK-293T, 24 h, read-out: RANT IC25.
As to `Cc1c2ccncc2cc2c3cc(OCCN4CCC(O)CC4)ccc3n(C)c12` [Compound 228, 1-(2-((5,6-dimethyl-6H-pyrido[4,3-b]carbazol-9-yl)oxy)ethyl)piperidin-4-ol], the IC25 was 1.3 µM.

Still in this test, the particulars now being: Homo sapiens, HEK-293T, read-out: RANT IC50.
As a reminder, the pIC50 is the negative decadic logarithm of the IC50, by convention in mol/L. As to `Cc1c2ccncc2cc2c3cc(Oc4ccccn4)ccc3n(C)c12` [Compound 305, 5,6-dimethyl-9-(pyridin-2-yloxy)-6H-pyrido[4,3-b]carbazole], the negative logarithm of the IC50 (pIC50) was 4.74.

Staying with this test, now noted: Homo sapiens, HEK-293T; Table E; inhibition of RAN translation, HEK293T; read-out: IC50.
In the case of `CCOC(=O)c1nccc2c(C)c3[nH]c4ccc(OC)cc4c3cc12` [Compound 202, Ethyl-9-methoxy-5-methyl-6H-pyrido[4,3-b]carbazole-1-carboxylate], the pIC50 is 4.92. As to `CCOC(=O)C1=NCCc2c1cc1c([nH]c3ccc(OC)cc31)c2C` [Compound 203], the pIC50 is below 4.90. Same read-out and setting: under `CCOC(=O)c1nccc2c(C)c3c(cc12)c1cc(OC)ccc1n3C` [Compound 204, Ethyl-9-methoxy-5,6-dimethyl-6H-pyrido[4,3-b]carbazole-1-carboxylate] stands 4.90; under `COCCNC(=O)c1nccc2c(C)c3[nH]c4ccc(OC)cc4c3cc12` [Compound 205], 4.90; under `CCCNC(=O)c1nccc2c(C)c3[nH]c4ccc(OC)cc4c3cc12` [Compound 206], below 4.90. In the case of `COc1ccc2[nH]c3c(C)c4ccnc(C(=O)NCCO)c4cc3c2c1` [Compound 207], the pIC50 was 5.22. Same read-out and setting: under `COc1ccc2[nH]c3c(C)c4ccnc(C(=O)NCCN)c4cc3c2c1` [Compound 208] stands 5.66. Still for that read-out and setting: under `COc1ccc2[nH]c3c(C)c4ccnc(C(=O)NCCN(C)C)c4cc3c2c1` [Compound 209] stands 5.51; under `COc1ccc2[nH]c3c(C)c4ccnc(C(=O)NCCCN(C)C)c4cc3c2c1` [Compound 210], 4.99; under `COc1ccc2c(c1)c1cc3c(C(=O)NCCN(C)C)nccc3c(C)c1n2C` [Compound 211], 5.51. Still for that read-out and setting: under `COc1ccc2c(c1)c1cc3c(C(=O)N[C@H](C)CN(C)C)nccc3c(C)c1n2C` [Compound 212, (R)—N-(1-(dimethylamino)propan-2-yl)-9-methoxy-5,6-dimethyl-6H-pyrido[4,3-b]carbazole-1-carboxamide] stands 5.51.

The same test, now with this note: Homo sapiens, HEK-293T; Table G; HEK293T; read-out: RANT IC50.
With `Cc1c2ccncc2cc2c3cc(C(=O)NCCOC(C)(C)C)ccc3n(C)c12` [Compound 301, N-(2-(tert-butoxy)ethyl)-5,6-dimethyl-6H-pyrido[4,3-b]carbazole-9-carboxamide], the pIC50 is 4.89.

For the next test, the target named is biotinylated r(G4C2)8 RNA and hnRNP H1-His6. In words: TR-FRET hnRNP H binding assay. The settings on record: Table D. As to the method:
TR-FRET hnRNP H Binding Assay. The TR-FRET assays were performed as previously described (Disney et al., 2012) except the final concentrations of biotinylated r(G4C2)8 (SEQ ID NO: 2) RNA and hnRNP H1-His6 were 80 nM and 75 nM, respectively. The RNA was folded by heating to 95° C. for 5 min in 1× Folding Buffer followed by slowly cooling to room temperature. The buffer was adjusted to 1×TR-FRET Assay Buffer followed by addition of compound. The mixture was incubated for 15 min at room temperature and then hnRNP H1-His6 was added. After an additional 15 min incubation, streptavidin-XL665 (HTRF, Cisbio Bioassays) and anti-His6-Tb (HTRF, Cisbio Bioassays) were added to a final concentration of 40 nM and 0.44 ng/μL, respectively. After incubating for 1 h, TR-FRET was measured as previously described. The IC50s were either calculated by fitting the equation (1) in Graphpad Prism.
On the technique in general: TR-FRET usually uses a lanthanide donor and a delayed reading to cut background.
As usually defined, the pKi is the Ki on a negative log10 scale, so that one unit is a factor of ten. Compound `Cc1c2ccncc2cc2c3cc(O)ccc3n(C)c12` [Compound 2, 5,6-dimethyl-6H-pyrido[4,3-b]carbazol-9-ol] had a pKi below 3.70. `Cc1c2ccncc2cc2c3cc(OCC(=O)O)ccc3n(C)c12` [Compound 4b, 2-((5,6-dimethyl-6H-pyrido[4,3-b]carbazol-9-yl)oxy)acetic acid] showed a pKi below 3.70. The same measure, in the same setting: under `Cc1c2ccncc2cc2c3cc(OCC#N)ccc3n(C)c12` [Compound 13, 2-((5,6-dimethyl-6H-pyrido[4,3-b]carbazol-9-yl)oxy)acetonitrile] stands below 3.70; under `COc1ccc2c(c1)c1cc3cnccc3c(C)c1n2Cc1cnn(C)c1` [Compound 14, 9-methoxy-5-methyl-6-((1-methyl-1H-pyrazol-4-yl)methyl)-6H-pyrido[4,3-b]carbazol], below 3.70; under `COc1ccc2c(c1)c1cc3cnccc3c(C)c1n2Cc1ccncc1` [Compound 16, 9-methoxy-5-methyl-6-(pyridin-4-ylmethyl)-6H-pyrido[4,3-b]carbazole], below 3.70.

Compound `COc1ccc2c(c1)c1cc3cnccc3c(C)c1n2Cc1ccccc1` [Compound 17, 6-benzyl-9-methoxy-5-methyl-6H-pyrido[4,3-b]carbazole] gave a pKi below 3.70. Still for that read-out and setting: under `COc1ccc2c(c1)c1cc3cnccc3c(C)c1n2C(C)C` [Compound 18, 6-isopropyl-9-methoxy-5-methyl-6H-pyrido[4,3-b]carbazole] stands below 3.70; under `COc1ccc2c(c1)c1cc3cnccc3c(C)c1n2C[C@@H](O)c1ccccc1` [Compound 19, (S)-2-(9-methoxy-5-methyl-6H-pyrido[4,3-b]carbazol-6-yl)-1-phenylethan-1-ol], below 3.70. The compound `COc1ccc2c(c1)c1cc3cnccc3c(C)c1n2CCN(C)C` [Compound 20, 2-(9-methoxy-5-methyl-6H-pyrido[4,3-b]carbazol-6-yl)-N,N-dimethylethan-1-amine] gave a pKi below 3.70. On the same count and under the same terms, under `COc1ccc2c(c1)c1cc3cnccc3c(C)c1n2CC1=NCCN1` [Compound 21, 6-((4,5-dihydro-1H-imidazol-2-yl)methyl)-9-methoxy-5-methyl-6H-pyrido[4,3-b]carbazole] stands below 3.70; under `COc1ccc2c(c1)c1cc3cnccc3c(C)c1n2CCCN1CCN(C)CC1` [Compound 22, 9-methoxy-5-methyl-6-(3-(4-methylpiperazin-1-yl)propyl)-6H-pyrido[4,3-b]carbazole], below 3.70; under `COc1ccc2c(c1)c1cc3c(C(=O)O)nccc3c(C)c1n2C` [Compound 24, 9-methoxy-5,6-dimethyl-6H-pyrido[4,3-b]carbazole-1-carboxylic acid], below 3.70.

Regarding `Cc1c2ccncc2cc2c3cc(OCCN4CCC(F)(F)CC4)ccc3n(C)c12` [Example 40, 9-(2-(4,4-difluoropiperidin-1-yl)ethoxy)-5,6-dimethyl-6H-pyrido[4,3-b]carbazole], the pKi is below 3.70. Same read-out and setting: under `Cc1c2ccncc2cc2c3cc(OCC4=NCCN4)ccc3n(CCCN3CCN(C)CC3)c12` [Example 43, 9-((4,5-dihydro-1H-imidazol-2-yl)methoxy)-5-methyl-6-(3-(4-methylpiperazin-1-yl)propyl)-6H-pyrido[4,3-b]carbazole] stands 4.57; under `Cc1c2ccncc2cc2c3cc(OCCCC(=N)N)ccc3n(C)c12` [Example 44a, 4-((5,6-dimethyl-6H-pyrido[4,3-b]carbazol-9-yl)oxy)butanimidamide], 5.00; under `COC(=O)CCCOc1ccc2c(c1)c1cc3cnccc3c(C)c1n2C` [Example 44b, methyl 4-((5,6-dimethyl-6H-pyrido[4,3-b]carbazol-9-yl)oxy)butanoate], below 3.70.

Staying with this test, now noted: Table F.
For the compound `Cn1c2ccc(OCCN3CCOCC3)cc2c2cc3ncccc3cc21` [Compound 225, 4-(2-((6-methyl-6H-pyrido[3,2-b]carbazol-9-yl)oxy)ethyl)morpholine], the pKi is below 3.70. On the same count and under the same terms, the figure for `CN(C)CCOc1ccc2c(c1)c1cc3ncccc3cc1n2C` [Compound 226, N,N-dimethyl-2-((6-methyl-6H-pyrido[3,2-b]carbazol-9-yl)oxy)ethanamine] is 4.89. On the same count and under the same terms, the figure for `Cc1c2ccncc2cc2c1oc1ccc(OCC3=NCCN3)cc12` [Compound 233, 9-((4,5-dihydro-1H-imidazol-2-yl)methoxy)-5-methylbenzofuro[2,3-g]isoquinoline] is 5.12; for `Cc1c2ccnc(C(C)C)c2cc2c3cc(C(=O)NCCN(C)C)ccc3n(C)c12` [Compound 238, N-(2-(dimethylamino)ethyl)-1-isopropyl-5,6-dimethyl-6H-pyrido[4,3-b]carbazole-9-carboxamide] it is 4.70. Turning to `Cc1c2ccncc2cc2c3cc(C(=O)OCCN(C)C)ccc3n(C)c12` [Compound 239, 2-(dimethylamino)ethyl 5,6-dimethyl-6H-pyrido[4,3-b]carbazole-9-carboxylate], the pKi was 4.62. Still for that read-out and setting: under `COc1cccc2c3cc4c(C(=O)N[C@H](C)CN(C)C)nccc4c(C)c3n(C)c12` [Compound 240, (R)—N-(1-(dimethylamino)propan-2-yl)-7-methoxy-5,6-dimethyl-6H-pyrido[4,3-b]carbazole-1-carboxamide] stands 4.70; under `Cc1c2ccnc(C(=O)N[C@H](C)CN(C)C)c2cc2c3c(OCCCN4CCN(C)CC4)cccc3n(C)c12` [Compound 241, (R)—N-(1-(dimethylamino)propan-2-yl)-5,6-dimethyl-10-(3-(4-methylpiperazin-1-yl)propoxy)-6H-pyrido[4,3-b]carbazole-1-carboxamide], 5.74. On the same count and under the same terms, under `Cc1c2ccncc2cc2c3cc(OCc4ncc[nH]4)ccc3n(C)c12` [Compound 251, 9-((1H-imidazol-2-yl)methoxy)-5,6-dimethyl-6H-pyrido[4,3-b]carbazole] stands 4.72.
